The target of one test is Recombinant human FGFR1 (Homo sapiens, UniProt P11362). Kind of test: Transcreener Kinase Assay of FGFR1. The test is classed as biochemical. As for the experimental part:
(§1) • 1. […] Prepare Solution • Test compounds were solved in DMSO and were diluted with assay buffer to 5 folds of final concentration keeping the DMSO concentration at 5%. Further dilution are needed to make final concentrations are at 1, 0.33, 0.11, 0.037, 0.012, 0.004, 0.0014, 0.0005 μM; (the final concentration of DMSO is 1%). • Enzyme/Substrate stock Preparation: Recombinant human FGFR1 and Poly E4Y are both diluted in assay buffer.
• 3. Enzymatic Reaction • In a 96-well plate, add 5 μL of diluted solution of test compound or control solution. (positive control: 5 μL of 5% DMSO; negative control: 5 μL of 500 mM EDTA) into desired wells respectively; • Add 10 μL of Enzyme/Substrate stock into each well; • Add 10 μL of ATP Diluents to initiate the enzyme reaction and vortex the plate immediately on a plate shaker; • For the wells to make standard curve, add 5 μL of 5% DMSO, 10 μL of assay buffer and 10 μL of ATP standard curve stock. • Incubate the plate for 45 min at 28° C. on a plate shaker in a low speed. • 4. […] Excitation wavelength: 610 nm, Emission wavelength: 670 nm. • 5. Data Analysis
(§2) [formula] Note: • [ADP] in Compound well represents the ADP concentration in test compound well. • [ADP] in Positive control well represents the ADP concentration in 5% DMSO well • Conversion of mP value to ADP concentration is calculated based on the formula which determined by standard curve. And mP value is measured by following the instruction provided by BellBrook Labs. (www.bellbrooklabs.com). • 6. IC50: determined with add-in software for Microsoft Excel, XLfit™ (version 2.0) from ID Business Solutions (Guildford, UK).

In another test the target is Recombinant human FGFR2 (Homo sapiens, UniProt P21802). Put plainly: Transcreener Kinase Assay of FGFR2. It counts as biochemical. The protocol: Example 24: Transcreener Kinase Assay of FGFR2
Recombinant human FGFR2, sequence (P21802 22-821): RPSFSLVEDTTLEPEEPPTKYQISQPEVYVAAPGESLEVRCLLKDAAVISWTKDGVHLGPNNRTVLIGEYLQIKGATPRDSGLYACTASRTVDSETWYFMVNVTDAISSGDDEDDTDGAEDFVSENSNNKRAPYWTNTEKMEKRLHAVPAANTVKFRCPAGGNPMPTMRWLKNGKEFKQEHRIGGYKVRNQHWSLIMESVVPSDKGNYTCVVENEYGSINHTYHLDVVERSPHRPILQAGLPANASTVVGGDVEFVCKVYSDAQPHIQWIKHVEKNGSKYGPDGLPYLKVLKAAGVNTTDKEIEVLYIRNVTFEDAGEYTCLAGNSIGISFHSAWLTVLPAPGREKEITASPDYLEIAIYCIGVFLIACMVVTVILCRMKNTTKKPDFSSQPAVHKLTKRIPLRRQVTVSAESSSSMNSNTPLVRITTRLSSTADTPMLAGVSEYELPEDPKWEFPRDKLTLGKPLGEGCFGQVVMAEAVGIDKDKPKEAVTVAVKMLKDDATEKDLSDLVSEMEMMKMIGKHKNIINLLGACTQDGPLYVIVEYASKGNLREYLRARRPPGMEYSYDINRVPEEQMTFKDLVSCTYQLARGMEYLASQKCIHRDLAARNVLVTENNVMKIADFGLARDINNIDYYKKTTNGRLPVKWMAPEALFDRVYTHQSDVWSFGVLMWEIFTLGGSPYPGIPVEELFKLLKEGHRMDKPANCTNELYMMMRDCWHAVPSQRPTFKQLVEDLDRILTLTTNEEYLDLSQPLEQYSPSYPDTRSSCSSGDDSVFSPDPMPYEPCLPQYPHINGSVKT
as §1, with “FGFR2” for “FGFR1”, “buffer. The final concentration is 0.3 ng/μL for FGFR2 and 62.5 ng/μL for Poly E4Y. The mixture is being kept in ice before use; • Prepare ATP Diluents, 10 mM ATP is diluted in assay buffer, the final concentration is 25 μM; • Prepare ADP Diluents: diluted ADP (500 μM) in assay buffer, the final concentration is 25 μM; • Prepare ATP standard curve stock as following:” for “buffer.”
• 3. Enzymatic Reaction • In a 96-well plate, add 5 μL of deluted solution of test compound or control solution. (positive control: 5 μL of 5% DMSO; negative control: 5 μL of 500 mM EDTA) into desired wells respectively; • Add 10 μL of Enzyme/Substrate stock into each well; • Add 10 μL of ATP Diluents to initiate the enzyme reaction and vortex the plate immediately on a plate shaker; • For the wells to make standard curve, add 5 μL of 5% DMSO, 10 μL of assay buffer and 10 μL of ATP standard curve stock. • Incubate the plate for 45 min at 28° C. on a plate shaker in a low speed. • 4. Stoping Reaction and Detecting ADP • Detection Mix Preparation: The mixture is made by dilution with MilliQ water; as following: ADP Alexa633 tracer (1:100), ADP antibody (1:158), and stop & detect buffer (1:10); • Tracer Only control Preparation: The mixture is made by dilution with MilliQ water; as following: ADP Alexa633 tracer (1:100), and stop & detect buffer (1: 10) • No Tracer control Preparation: stop & detect buffer is diluted with MilliQ water; by 10 fold. • Add 25 μL of detection mix, Tracer Only control and No Tracer control into corresponding wells, respectively; • Incubate at 28° C. for 1 h, on a plate shaker in a low speed; • Measure florescence polarization (mP) on TECAN F500. Excitation wavelength: 610 nm, Emission wavelength: 670 nm. • 5. Data Analysis
as §2

The next test deals with FGFR3 kinase (Homo sapiens, UniProt P22607). Kind of test: Z-Lyte Kinase Assay of FGFR3. It counts as biochemical. The protocol: Example 25: Z-Lyte Kinase Assay of FGFR3
FGFR3 kinase, sequence (P22607 23-806): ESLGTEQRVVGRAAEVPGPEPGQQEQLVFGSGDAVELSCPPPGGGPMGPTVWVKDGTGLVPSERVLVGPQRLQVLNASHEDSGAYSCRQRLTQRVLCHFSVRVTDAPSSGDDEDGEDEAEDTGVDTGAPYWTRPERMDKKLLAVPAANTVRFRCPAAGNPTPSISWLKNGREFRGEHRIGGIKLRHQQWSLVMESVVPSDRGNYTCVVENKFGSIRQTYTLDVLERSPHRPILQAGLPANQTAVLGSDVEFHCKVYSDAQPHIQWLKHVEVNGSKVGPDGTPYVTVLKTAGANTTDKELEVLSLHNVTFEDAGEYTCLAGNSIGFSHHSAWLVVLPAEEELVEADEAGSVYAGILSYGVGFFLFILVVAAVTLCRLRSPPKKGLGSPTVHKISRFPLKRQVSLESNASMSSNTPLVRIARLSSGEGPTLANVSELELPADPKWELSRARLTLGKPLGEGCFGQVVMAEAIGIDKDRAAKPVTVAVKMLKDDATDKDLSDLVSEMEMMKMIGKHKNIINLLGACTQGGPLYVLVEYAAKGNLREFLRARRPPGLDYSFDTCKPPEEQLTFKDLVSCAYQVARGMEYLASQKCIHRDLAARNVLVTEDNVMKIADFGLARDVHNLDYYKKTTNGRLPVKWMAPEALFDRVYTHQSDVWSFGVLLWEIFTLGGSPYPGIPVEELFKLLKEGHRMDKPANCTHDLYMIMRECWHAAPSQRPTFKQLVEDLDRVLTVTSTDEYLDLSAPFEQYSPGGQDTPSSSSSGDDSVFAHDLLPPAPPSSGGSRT
• 1. Materials and Reagents:
• 2. Reaction Steps: Plate Map
• 3. […] The final concentrations are 1, 0.33, 0.11, 0.037, 0.012, 0.004, 0.0014, 0.00046 μM, and the final concentration of DMSO is 2%. • 3) Kinase/Peptide Mixture (P/K solution): Prepare Kinase/Peptide Mixture by diluting the kinase to 0.7 μg/ml and the Z-LYTE™ Tyr 4 peptide to 4 μM in 1.33× Kinase Buffer. Mix gently by pipetting. • 4) Phospho-peptide Solution (PP solution): Add 0.4 μl of Z-LYTE™ Tyr 4 Phospho-peptide to 99.6 μl of 1.33× Kinase Buffer. • 5) ATP Solution: Prepare ATP Solution by diluting the 10 mM of ATP in 1.33× Kinase Buffer to 300 uM. • 6) Development Solution: Dilute Development Reagent B with Development Buffer as 1:128. • 4. […] Shake the plate for 30 Sec and centrifuge (1500 rpm, 1 min). • Seal the plate to protect from the light and incubate the plate for 1 hour at RT (25-30° C.). • 2) Development reaction • Add 5 μl of the Development solution to all wells. • Shake the plate for 30 Sec and centrifuge (1500 rpm, 1 min). • Seal the plate to protect from the light and incubate the plate for 1 hour at RT (25-30° C.). • 3) Stop and Read • Add 5 μl of the Stop reagent to all wells. • Shake the plate for 30 Sec and centrifuge (1500 rpm, 1 min). • Measure the value of Coumarin (Ex400 nm, Em445 nm) and fluorescein (Ex400 nm, Em520 nm), respectively. • 5. Data Analysis Emission Ratio(ER)=Coumarin Emission (445 nm)/Fluorescein Emission (520 nm) % Phosphorylation=1−[ER×C3520nm-C3445nm]/[(C1445nm-C3445nm)+ER×(C3520nm−C1520nm)] Inhibition rate (IR)=1−% Photest Cpd/% PhoC2 • 6. IC50 Value: determined with add-in software for Microsoft Excel, XLfit™ (version 2.0) from ID Business Solutions (Guildford, UK)

A further test deals with KG-1. Put plainly: Cellular Proliferation Assay (Cell Counting Kit-8), KG-1. The test is classed as cell-based. The conditions noted are these: Homo sapiens; KG-1 cells, 72 hours; read-out: KG1 IC50. The protocol:
(§3) Example 26: Cellular Proliferation Assay
(§4) • 1. Cell Line • KG-1 (ATCC Accession No. CCL-246), • SNU-16 (ATCC Accession No. CRL-5974), • RT-112 (ECACC Accession No. 85061106) • 2. Assay Protocol • FGFR related cancer cell proliferation is measured in 96-well plates using Cell Counting Kit-8 (Dojindo CK04-13). • Seed 30000 cells/well of KG1, 5000 cells/well of SNU16, and 1000 cells/well of RT112 in a volume of 100 μL/well in growth media. • After 24 hours, dilute the test compound to 10, 3.3, 1.1, 0.37, 0.12, 0.04, 0.013, 0.004 μM, keeping the DMSO concentration at 5%. • Add 10 μL of 8-point compound series to the wells of culturing cells. • Incubate at 37° C. and 5% CO2 for 72 hours • Add 10 μL/well of CCkit8 and incubate at 37° C. and 5% CO2 for an hour • Detect the optical density of each well at 450 nm on Labsystems Multiskan K3. • 3. Data Analysis
(§5) [formula] Note: • ODcompound well represents the optical density of cells treated with compound. • ODcell well represents the optical density of cells without compounds treatment.(only 0.5% DMSO) • ODcontrol well represents the optical density of culture media background • IC50: determined with add-in software for Microsoft Excel, XLfit™ (version 2.0) from ID Business Solutions (Guildford, UK).

Another test deals with SNU-16. Kind of test: Cellular Proliferation Assay (Cell Counting Kit-8), SNU-16. The conditions noted are these: Homo sapiens; SNU-16 cells, 72 hours. It counts as cell-based. As for the experimental part:
as §3, §4, §5
A general note: Tetrazolium dyes change colour on reduction, which living cells bring about.

Another test has as its system RT-112. Put plainly: Cellular Proliferation Assay (Cell Counting Kit-8), RT-112. The test is classed as cell-based. The following applies: Homo sapiens; RT-112 cells, 72 hours. The protocol:
as §3, §4, §5

SMILES strings stand for the structures. Where two headings read alike, the source gives them in different places.

Recombinant human FGFR1, sequence (P11362 22-822): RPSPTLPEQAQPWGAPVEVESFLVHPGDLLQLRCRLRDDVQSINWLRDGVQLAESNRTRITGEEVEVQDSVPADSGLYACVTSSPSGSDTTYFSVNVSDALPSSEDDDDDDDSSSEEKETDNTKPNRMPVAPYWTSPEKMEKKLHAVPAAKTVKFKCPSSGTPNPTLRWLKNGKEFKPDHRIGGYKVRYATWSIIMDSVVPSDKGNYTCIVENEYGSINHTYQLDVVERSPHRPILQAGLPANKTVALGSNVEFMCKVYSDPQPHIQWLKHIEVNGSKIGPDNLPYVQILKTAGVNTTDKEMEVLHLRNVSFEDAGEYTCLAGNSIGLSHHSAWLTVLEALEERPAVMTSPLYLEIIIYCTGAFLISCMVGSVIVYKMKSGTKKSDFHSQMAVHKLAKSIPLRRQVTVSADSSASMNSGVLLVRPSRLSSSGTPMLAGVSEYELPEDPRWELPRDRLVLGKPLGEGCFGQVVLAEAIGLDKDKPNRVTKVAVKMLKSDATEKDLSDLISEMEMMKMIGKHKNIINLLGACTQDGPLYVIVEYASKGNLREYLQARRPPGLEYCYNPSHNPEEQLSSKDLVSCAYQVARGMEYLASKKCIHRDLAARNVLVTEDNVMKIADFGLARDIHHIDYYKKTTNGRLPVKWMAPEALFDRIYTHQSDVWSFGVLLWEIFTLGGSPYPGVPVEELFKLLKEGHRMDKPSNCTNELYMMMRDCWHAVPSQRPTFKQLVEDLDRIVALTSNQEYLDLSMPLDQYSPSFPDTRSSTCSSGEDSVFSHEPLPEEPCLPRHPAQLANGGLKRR

On to `CNC(=O)c1cc(COc2cnc(Nc3ccnc(N4C[C@@H](C)N[C@@H](C)C4)c3)nc2)c(F)c(OC)c1` [Compound 259], for which the IC50 on Recombinant human FGFR1 (read-out: FGFR1 (FP) IC50) is 24 nM; at Recombinant human FGFR2 (read-out: FGFR2 (FP) IC50), 14 nM; at FGFR3 kinase it was 13 nM; in the test with KG-1, 220 nM; with SNU-16, 39 nM; in the test with RT-112 it was 141 nM.
Regarding `CNC(=O)c1cc(COc2cnc(Nc3ccc4c(c3)NC(=O)C4(C)C)nc2)c(F)c(OC)c1` [Compound 230], the IC50 at Recombinant human FGFR1 (read-out: FGFR1 (FP) IC50) was 101 nM; at Recombinant human FGFR2 (read-out: FGFR2 (FP) IC50), 32 nM; on FGFR3 kinase, 45 nM; in the test with KG-1 it was 76 nM; in the test with SNU-16, 14 nM; with RT-112, 26 nM.
With `CNC(=O)c1cc(OC)c(Cl)c(COc2cnc(Nc3ccc(N4C[C@@H](C)N[C@@H](C)C4)nc3)nc2)c1F` [Compound 291], the IC50 amounted to 17 nM at Recombinant human FGFR1 (FP); 18 nM on Recombinant human FGFR2 (FP); 17 nM on FGFR3 kinase (Z-lyte); 15 nM in the test with KG-1; 17 nM in the test with SNU-16; 27 nM in the test with RT-112.
Consider `CNC(=O)c1cc(COc2cnc(Nc3ccc([C@H]4CCCN(C(C)=O)C4)nc3)nc2)c(Cl)c(OC)c1` [Compound 284], for which the IC50 stood at 39 nM at Recombinant human FGFR1 (FP); 24 nM at Recombinant human FGFR2 (FP); 43 nM on FGFR3 kinase (Z-lyte); 71 nM with KG-1; 33 nM in the test on SNU-16; 72 nM with RT-112.
With `CNC(=O)c1cc(COc2cnc(Nc3ccc(N4C[C@@H](C)N(C)[C@@H](C)C4)nc3)nc2)c(F)c(OC)c1` [Compound 268], the IC50 came out at 21 nM at Recombinant human FGFR1 (read-out: FGFR1 (FP) IC50); 16 nM at Recombinant human FGFR2 (read-out: FGFR2 (FP) IC50); 20 nM at FGFR3 kinase; 17 nM in the test on KG-1; 18 nM in the test on SNU-16; 47 nM with RT-112.
Take `CNC(=O)c1cc(COc2cnc(Nc3cnc(N4C[C@@H](C)N[C@@H](C)C4)nc3)nc2)c(Cl)c(OC)c1` [Compound 276]: the IC50 at Recombinant human FGFR1 (read-out: FGFR1 (FP) IC50) turned out to be 20 nM; on Recombinant human FGFR2 (read-out: FGFR2 (FP) IC50), 23 nM; against FGFR3 kinase it was 21 nM; in the test with KG-1 it was 83 nM; in the test with SNU-16, 21 nM; with RT-112 it was 140 nM.
On to `CCN1CCN(c2ccc(Nc3ncc(OCc4cc(C(=O)NC)cc(OC)c4F)cn3)cc2OC)CC1` [Compound 283], for which the IC50 on Recombinant human FGFR1 (FP) came to 12 nM; on Recombinant human FGFR2 (FP), 5 nM; against FGFR3 kinase (Z-lyte), 4 nM; with KG-1 it was 8 nM; in the test with SNU-16 it was 3 nM; with RT-112 it was 8 nM.
Regarding `CNC(=O)c1cc(COc2cnc(Nc3ccc(-n4nccn4)cc3)nc2)c(Cl)c(OC)c1` [Compound 233], the IC50 at Recombinant human FGFR1 (read-out: FGFR1 (FP) IC50) is 98 nM; on Recombinant human FGFR2 (read-out: FGFR2 (FP) IC50), 31 nM; on FGFR3 kinase, 310 nM; in the test on KG-1, 58 nM; in the test on SNU-16, 63 nM; in the test on RT-112, 121 nM.
On to `CNC(=O)c1cc(COc2cnc(Nc3ccc(N4CCOCC4)c(OC)c3)nc2)c(F)c(OC)c1` [Compound 261], for which the IC50 amounted to 26 nM at Recombinant human FGFR1 (read-out: FGFR1 (FP) IC50); 13 nM at Recombinant human FGFR2 (read-out: FGFR2 (FP) IC50); 18 nM against FGFR3 kinase; 19 nM in the test with KG-1; 7 nM with SNU-16; 13 nM in the test with RT-112.
For the compound `CNC(=O)c1cc(COc2cnc(Nc3cccc(S(C)(=O)=O)c3)nc2)c(F)c(OC)c1` [Compound 227], the IC50 at Recombinant human FGFR1 (read-out: FGFR1 (FP) IC50) turned out to be 23 nM; on Recombinant human FGFR2 (read-out: FGFR2 (FP) IC50), 8 nM; on FGFR3 kinase it was 25 nM; in the test with KG-1 it was 35 nM; with SNU-16 it was 20 nM; with RT-112 it was 85 nM.
On to `CCN1CCN(c2ccc(Nc3ccc(CCc4cc(OC)cc(C(=O)NOC)c4)cn3)cc2)CC1` [Compound 73], for which the IC50 on Recombinant human FGFR1 (read-out: FGFR1 (FP) IC50) amounted to 9 nM; on Recombinant human FGFR2 (read-out: FGFR2 (FP) IC50) it was 8 nM; against FGFR3 kinase it was 25 nM; in the test with KG-1, 70 nM; with SNU-16, 65 nM; in the test with RT-112 it was 493 nM.
`CNC(=O)c1cc(COc2cnc(Nc3ccc(-n4cncn4)cc3)nc2)c(F)c(OC)c1` [Compound 221]: the IC50 on Recombinant human FGFR1 (read-out: FGFR1 (FP) IC50) was determined as 34 nM; at Recombinant human FGFR2 (read-out: FGFR2 (FP) IC50), 11 nM; on FGFR3 kinase it was 37 nM; in the test on KG-1 it was 35 nM; in the test with SNU-16, 27 nM; with RT-112 it was 72 nM.

In general, IC50 refers to the concentration that gives 50% inhibition.

The values above are taken from patent US9701680B2, “Pyrimidine and pyridine compounds and their usage” (HUTCHISON MEDIPHARMA LIMITED, priority 2013, dated 2017).
